Source: patent US10329262B2, “Quinazolinone antibiotics” (priority 2013, dated 2019)
“Also recorded” adds a separate entry of the source.

Tests used:
[1] = tested on: S. aureus ATCC 29213 (MSSA); assay: MIC, CLSI broth microdilution, S. aureus ATCC 29213; assay type: cell-based, Staphylococcus aureus
Description: (§1) MICs were evaluated following the CLSI microdilution method in BBL™ Mueller-Hinton II broth (Wikler et al., Clinical Laboratory Standards Institute Document M7-A7, 29 (2009)). Briefly, two-fold serial dilutions of compound were prepared in triplicate in 96-well plates and inoculated with 5×10^5 cfu/mL of the bacterial suspension. Plates were incubated at 37° C. for 16-20 hours.

S. aureus NRS128 = assay: MIC, CLSI broth microdilution, S. aureus NRS128; assay type: cell-based, Staphylococcus aureus; conditions: Table 2.1, S. aureus NRS128
Description: as §1

[2] = tested on: S. haemolyticus ATCC 29970; assay: MIC, CLSI broth microdilution, S. haemolyticus ATCC 29970; assay type: cell-based
Description: as §1

S. aureus NRS120 = assay: MIC, CLSI broth microdilution, S. aureus NRS120; assay type: cell-based, Staphylococcus aureus
Description: as §1

PBP1 = biological target: T1, PBP1 (Staphylococcus aureus, UniProt Q53725); assay: Bocillin FL competition assay, S. aureus membrane preparation; assay type: binding
T1 construct: Fluorescence labeling of S. aureus membrane preparation (150 μg) by Bocillin FL (30 μM); endogenous in cells; host or cells: S. aureus ATCC 29213 membrane preparation
T1 sequence (Q53725 1-744): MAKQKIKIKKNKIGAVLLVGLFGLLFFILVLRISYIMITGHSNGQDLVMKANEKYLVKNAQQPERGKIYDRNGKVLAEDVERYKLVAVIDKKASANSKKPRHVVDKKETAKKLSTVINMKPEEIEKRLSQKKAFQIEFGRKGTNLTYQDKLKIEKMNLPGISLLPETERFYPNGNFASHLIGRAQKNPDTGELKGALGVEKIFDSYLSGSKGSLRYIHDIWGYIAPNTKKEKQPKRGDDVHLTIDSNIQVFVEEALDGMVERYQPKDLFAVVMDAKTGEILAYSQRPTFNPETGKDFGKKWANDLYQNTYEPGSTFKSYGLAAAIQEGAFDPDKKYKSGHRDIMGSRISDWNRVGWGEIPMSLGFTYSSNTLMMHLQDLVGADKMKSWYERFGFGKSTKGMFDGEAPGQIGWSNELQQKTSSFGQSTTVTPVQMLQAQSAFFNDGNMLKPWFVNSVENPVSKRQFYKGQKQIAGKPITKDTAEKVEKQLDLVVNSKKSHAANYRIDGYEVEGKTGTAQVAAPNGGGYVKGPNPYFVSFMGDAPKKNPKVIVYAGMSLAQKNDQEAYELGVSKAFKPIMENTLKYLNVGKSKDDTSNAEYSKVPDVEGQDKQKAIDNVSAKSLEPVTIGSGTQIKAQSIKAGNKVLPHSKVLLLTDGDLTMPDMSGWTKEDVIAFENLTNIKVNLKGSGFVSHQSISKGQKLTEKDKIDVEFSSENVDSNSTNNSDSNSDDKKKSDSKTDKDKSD
Description: S. aureus (ATCC 29213), a methicillin-sensitive strain, was grown in Difco Luria-Bertani (LB) broth at 37° C. until an OD625˜0.8. Cells were centrifuged at 3,200 g for 30 min at 4° C. and washed once with cold 100 mM NaH2PO4, 50 mM NaHCO3, pH 7.5, buffer. The cells were resuspended in 10 mL cold buffer containing complete EDTA-free protease inhibitor, 200 μg/mL lysostaphin, 15 μg/mL DNase I, 10 mM MgCl2, and 1 mM EDTA and incubated for 30 min at 37° C. Cells were sonicated using a Branson Sonifer for 5×1 min cycles, with 2 min of rest in between each cycle, and the lysate was centrifuged at 3,200 g for 20 min at 4° C. The supernatant was then ultracentrifuged at 32,000 rpm for 1 h at 4° C. and the pellet was washed once with cold buffer. The resulting membrane was resuspended in buffer, quantified using the BCA Protein Assay Kit, and the concentration was adjusted to 9 mg/mL.
The Bocillin FL competition assays were performed with purified PBP2a and membrane extracts. PBP2a was purified using a previously described protocol (Fuda et al., J. Biol. Chem. 279, 40802-40806 (2004)). […] Samples were centrifuged, loaded to SDS-PAGE, the gels were visualized immediately using a Storm840 Scanner, and fluorescence was quantified using ImageQuant software. IC50 values were calculated using GraphPad prism 5, using the previously published equation.

S. aureus VRS1 = assay: MIC, CLSI broth microdilution, S. aureus VRS1; assay type: cell-based, Staphylococcus aureus
Description: as §1

[3] = Plasma protein binding, rapid equilibrium dialysis, human; assay type: in vitro ADME; conditions: humans, 10 μM, 6 h dialysis
Description: Aliquots from both chambers were quenched with 1:2 v/v acetonitrile containing an internal standard. The samples were concentrated to dryness on a miVac concentrator and the residue resuspended in 50:50 acetonitrile/water. Samples were analyzed by reverse-phase ultraperformance liquid chromatography (UPLC) with UV/Vis detection. Plasma protein binding of quinazolinone 2 was 98.0±0.04% in mice and 96.5±0.70% in humans.

[4] = tested on: E. coli S30 extract system; assay: In vitro translation assay (E. coli S30 extract, β-galactosidase); assay type: biochemical; conditions: up to 64 μg/mL
Source text: For in vitro translation, the E. coli S30 Extract System for Circular DNA was used to set up the reactions using plasmid pCP19 containing the lacZ gene for β-galactosidase. Reaction mixtures were supplemented with two-fold dilutions of antibiotic 2 and the β-Galactosidase Enzyme Assay System with Reporter Lysis Buffer was used to quantify the amount of β-galactosidase translated by measuring absorbance at 420 nm. For in vitro transcription, a TranscriptAid T7 High Yield Transcription kit was used with a pET24a/dacB DNA construct under the T7 promoter. The purified plasmid was linearized using the restriction endonuclease XhoI and then purified according to the manufacturer's instructions. A series of samples were prepared and supplemented with two-fold dilutions of antibiotic 2. Samples were analyzed by running on a denaturing 1% formaldehyde agarose gel and stained with ethidium bromide to visualize RNA. Intensities of the bands were quantified and compared to the control to determine the amount of transcription occurring in the presence of 2.

MRSA ATCC 27660 = assay: Mouse peritonitis model of MRSA infection; assay type: in vivo, mice
Description: We evaluated several compounds in in vivo mouse infection models, as well as in pharmacokinetic (PK) studies in mice (Table 1). The in vivo efficacy was determined using the rapid mouse peritonitis model of infection, in which the end point is death or survival in 48 hours. We initially dosed the compounds intravenously (iv) at a single dose level. If the compound has good in vivo efficacy after iv administration, we then evaluated efficacy at five dose levels. We also investigated in vivo efficacy after oral (po) administration.
Groups (n=6/group) of mice were infected with MRSA (0.5 mL of ATCC 27660 at a final concentration of 5×10^7 CFU/mL in 5% porcine mucin) intraperitoneally (ip). Following infection, mice were given iv doses by tail vein injection of compound 2, vancomycin (5 mg/kg, positive control), or vehicle at 30 min and 4.5 h after infection. The number of surviving mice was monitored for 48 h. The negative control (vehicle) typically results in the death of all mice. Quinazolinone 2 was dissolved in saline, sterile-filtered, and administered at doses of 2.5, 5, 7.5, 10, 20, and 30 mg/kg. The ED50 value was calculated using GraphPad prism 5.

N#Cc1ccc(/C=C/c2nc3ccccc3c(=O)n2-c2cccc(C(=O)O)c2)cc1.[Na] [Compound 2, Sodium (E)-3-(3-carboxyphenyl)-2-(4-cyanostyryl)quinazolin-4(3H)-one]
MIC ([1]; Staphylococcus aureus): 2 µg/mL | In vitro AB activity (MIC) ([1]; Table 2.1, S. aureus ATCC 29213): 2 µg/mL | Increase of MIC in the presence of BSA ([1]; with BSA vs without): 4 fold | In vitro AB activity (MIC) (S. aureus NRS128): 4 µg/mL | MIC ([2]; Staphylococcus haemolyticus, ATCC29970): 1 µg/mL | In vitro AB activity (MIC) ([2]; Table 2.1, S. haemolyticus ATCC 29970): 1 µg/mL | MIC (S. aureus NRS120; Staphylococcus aureus, NRS120): 8 µg/mL | In vitro AB activity (MIC) (S. aureus NRS120; Table 2.1, S. aureus NRS120): 8 µg/mL | IC50 (PBP1): 187 µM | MIC (S. aureus VRS1; Staphylococcus aureus, VRS1): 16 µg/mL | In vitro AB activity (MIC) (S. aureus VRS1; Table 2.1, S. aureus VRS1): 16 µg/mL | Plasma protein binding [3]: 96.5±0.70% | Inhibition of in vitro translation [4]: did not show any inhibition; also recorded: No inhibition | In Vivo Efficacy (survived/total mice) (MRSA ATCC 27660; 10 mg/kg iv at 30 min and 4.5 hr after infection, n = 6, 48 h): 5/6 @ 10 mg/kg | ED50 (MRSA ATCC 27660; Staphylococcus aureus, iv administration, dose giving survival of 50% of the animals, read-out: Median effective dose (ED50)): 10 mg/kg
